Several values for one entry are separate records, joined by “and”; a condition that tells them apart may be missing. Equal values may be shown once. Read-outs that look alike come from different tables or passages of the source.
Columns and labels:
Assay in all cases: Filter binding assay, GST-CBS domain fusion
AMPK-γ2 CBS1-2 (WT) = biological target: T1, AMPK-γ2 CBS1-2 (WT) (Homo sapiens, UniProt Q9UGJ0)
T1 construct: the N-terminal pair (CBS1-2, residues 274-410); made in house; host or cells: E. coli BL21 (DE3)
Description: (§1) The boundaries of the CBS domains were taken from the alignments by Bateman. Using a plasmid encoding human γ2 as the template, PCR was used to produce DNAs encoding all four CBS domains (CBS1-4, residues 274-569), the N-terminal pair (CBS1-2, residues 274-410) or the C-terminal pair (CBS3-4, residues 430-556). The PCR primers had been designed to create BamHI and XhoI sites at the ends, and these were used to insert them into a vector that created a fusion protein with glutathione-S-transferase at the N-terminal end followed by a hexaglycine spacer, with the CBS domains at the C-terminus. All three constructs were expressed in E. coli and could be purified on glutathione-Sepharose as soluble proteins of the expected sizes in good yield (CBS1-4, 61 kDa, 5 mg/L of culture; CBS1-2, 43 kDa, 2 mg/L; CBS3-4, 43 kDa, 2 mg/L).
(§2) Site-directed mutagenesis was used to create the point mutation in CBS1 that causes hereditary heart disease (R302Q).
(§3) Various concentrations of [^14C]-AMP, [γ^32P] […] Reactions were stopped by spotting 10 ìl onto a Millipore MF Filter Membrane disc and rapidly washing under high vacuum with 1 ml of ice-cold TBS. Radioactivity was determined on the filters by scintillation counting. Non-specific binding (which was trivial) was determined by performing the assay with GST as a control, and was subtracted. […] Data were fitted to the binding models given in the text, using GraphPad Prism 3. Estimates of parameters resulting from fits are quoted in the text and Table 1±standard error, and the curves shown in figures are theoretical curves obtained using those estimates.

AMPK-γ2 CBS3-4 (R531G) = biological target: T2, AMPK-γ2 CBS3-4 (R531G) (Homo sapiens, UniProt Q9UGJ0, R531G); details: for Kd: single-site model
T2 construct: the C-terminal pair (CBS3-4, residues 430-556); made in house; host or cells: E. coli BL21 (DE3)
Method: (§4) Site-directed mutagenesis was also used to create a point mutation in CBS4 that causes hereditary heart disease (WPWS) (R531G).
as §3

AMPK-γ1 CBS1-4 = biological target: T3, AMPK-γ1 CBS1-4 (UniProt P80385); set-up: species or system rat; details: for Kd: two site Hill plot model, read-out: B0.5
T3 construct: B0.5; other: two site Hill plot model; h (Hill coefficient); fused on or other part: GST at the N-terminus (pGEX-KG, glycine spacer)
Method: The construct was expressed in E. coli and could be purified on glutathione-Sepharose as a soluble protein of the expected size (62 kDa) in good yield (3 mg/L of culture).
DNA encoding the CBS1-4 domains of the γ1 isoform was produced using PCR with a rat y1-encoding pcDNA3 plasmid as template. The primers used were: 5′-CGCGGATCCGCGATGGAGACGGTCATTTCTTCA-3′ (sense), 5′-CCGCTCGAGCGGGGGCTTCTTCTCTCCACCTGT-3′ (antisense). The PCR products was sub-cloned into pGEX-KG as above.
as §3

AMPK-γ2 CBS3-4 (WT) = biological target: T4, AMPK-γ2 CBS3-4 (WT) (Homo sapiens, UniProt Q9UGJ0); details: single-site model
T4 construct: the C-terminal pair (CBS3-4, residues 430-556); made in house; host or cells: E. coli BL21 (DE3)
Description: as §1, §4
Various concentrations of [^14C]-AMP, [γ^32P] […] Reactions were stopped by spotting 10 ìl onto a Millipore MF Filter Membrane disc and rapidly washing under high vacuum with 1 ml of ice-cold TBS. Radioactivity was determined on the filters by scintillation counting. Non-specific binding (which was trivial) was determined by performing the assay with GST as a control, and was subtracted. […]

AMPK-γ2 CBS1-2 (Lins) = biological target: T5, AMPK-γ2 CBS1-2 (Lins) (Homo sapiens, UniProt Q9UGJ0, INS350L); details: single-site model
T5 construct: fused on or other part: GST at the N-terminus followed by a hexaglycine spacer (pGEX-KG)
Method: (§5) The present inventors also used site-directed mutagenesis to create four of the mutations in CBS1-2 that cause WPWS, i.e. R302Q, H383R and T400N, and Lins (which inserts a leucine residue in the linker between CBS1 and CBS2).
as §3

AMPK-γ2 CBS1-2 (T400N) = biological target: T6, AMPK-γ2 CBS1-2 (T400N) (Homo sapiens, UniProt Q9UGJ0, T400N); details: for Kd: single-site model
T6 construct: the N-terminal pair (CBS1-2, residues 274-410); made in house; host or cells: E. coli BL21 (DE3)
Method: as §5, §3

AMPK-γ2 CBS1-2 (H383R) = biological target: T7, AMPK-γ2 CBS1-2 (H383R) (Homo sapiens, UniProt Q9UGJ0, H383R); details: for Kd: single-site model
T7 construct: the N-terminal pair (CBS1-2, residues 274-410); made in house; host or cells: E. coli BL21 (DE3)
Method: as §5, §3

AMPK-γ3 CBS1-4 = biological target: T8, AMPK-γ3 CBS1-4 (Homo sapiens, UniProt Q9UGI9); details: for Kd: two site Hill plot model, read-out: B0.5
T8 construct: Human γ3 (residues 197-479) was also used as a template for PCR; made in house; host or cells: E. coli BL21 (DE3)
T8 sequence (Q9UGI9 197-479): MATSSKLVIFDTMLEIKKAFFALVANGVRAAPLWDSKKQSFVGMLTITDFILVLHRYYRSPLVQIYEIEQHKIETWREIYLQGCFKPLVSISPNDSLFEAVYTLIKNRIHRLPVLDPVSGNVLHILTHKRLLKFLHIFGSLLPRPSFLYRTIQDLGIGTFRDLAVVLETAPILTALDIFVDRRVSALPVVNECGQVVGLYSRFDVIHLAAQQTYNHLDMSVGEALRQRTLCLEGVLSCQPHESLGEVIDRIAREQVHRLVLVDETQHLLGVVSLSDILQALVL
Description: DNA fragments were produced encoding all four (CBS1-4), or the first two (CBS1-2), or the last two (CBS3-4) of the tandem CBS domains from the human AMPK γ2 subunit. DNAs were produced by the polymerase chain reaction (PCR) using the Stratagene Pfu Turbo PCR kit and a human γ2-encoding pcDNA3 plasmid as template. The following oligonucleotides were used as primers: (CBS1-4), 5′-CGCGGATCCGCGGTTCCAACCAGTTCAAAGCTTGTT-3′ (sense), 5′-CCGCTCGAGCGGCTCCGTTTCTGTCTCCTTTTGTTT-3′ (antisense); CBS1-2 (sense strand as CBS1-4), 5′-CCGCTCGAGCGGAAGCTGGAGGAACTTGAGGATTCT-3′ (antisense); CBS3-4: 5′-CGCGGATCCGCGATAGGAACGTACCACAACATTGCC-3′ (sense), 5′-CCGCTCGAGCGGGAGGATCAGGGCTTGCAGAATGTC-3′ (antisense). Human γ3 (residues 197-479) was also used as a template for PCR (14). The PCR products were subcloned into pGEX-KG as 5′-BamHI and 3′-XhoI restriction fragments for expression as glutathione-S-Transferase (GST) fusions in E. coli.
as §3

AMPK-γ2 CBS1-2 (R302Q) = biological target: T9, AMPK-γ2 CBS1-2 (R302Q) (Homo sapiens, UniProt Q9UGJ0, R302Q); details: for Kd: single-site model
T9 construct: the N-terminal pair (CBS1-2, residues 274-410); made in house; host or cells: E. coli BL21 (DE3)
Description: as §2, §5, §3

T2 sequence (Q9UGJ0 430-556 R531G): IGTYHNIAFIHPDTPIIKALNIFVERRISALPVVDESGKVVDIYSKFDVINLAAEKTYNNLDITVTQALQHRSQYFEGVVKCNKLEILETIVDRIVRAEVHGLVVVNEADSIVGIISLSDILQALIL
T1 sequence (Q9UGJ0 274-410): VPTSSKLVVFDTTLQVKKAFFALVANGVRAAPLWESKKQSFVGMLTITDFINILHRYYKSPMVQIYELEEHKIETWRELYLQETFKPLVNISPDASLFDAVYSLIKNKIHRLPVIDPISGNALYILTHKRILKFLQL
T6 sequence (Q9UGJ0 274-410 T400N): as the sequence (Q9UGJ0 274-410) above, with T127N counted along it
T7 sequence (Q9UGJ0 274-410 H383R): as the sequence (Q9UGJ0 274-410) above, with H110R counted along it
T9 sequence (Q9UGJ0 274-410 R302Q): as the sequence (Q9UGJ0 274-410) above, with R29Q counted along it
T4 sequence (Q9UGJ0 430-556): as the sequence (Q9UGJ0 430-556 R531G) above, with G102R counted along it
T5 sequence (Q9UGJ0 with tags, fused parts or gaps INS350L): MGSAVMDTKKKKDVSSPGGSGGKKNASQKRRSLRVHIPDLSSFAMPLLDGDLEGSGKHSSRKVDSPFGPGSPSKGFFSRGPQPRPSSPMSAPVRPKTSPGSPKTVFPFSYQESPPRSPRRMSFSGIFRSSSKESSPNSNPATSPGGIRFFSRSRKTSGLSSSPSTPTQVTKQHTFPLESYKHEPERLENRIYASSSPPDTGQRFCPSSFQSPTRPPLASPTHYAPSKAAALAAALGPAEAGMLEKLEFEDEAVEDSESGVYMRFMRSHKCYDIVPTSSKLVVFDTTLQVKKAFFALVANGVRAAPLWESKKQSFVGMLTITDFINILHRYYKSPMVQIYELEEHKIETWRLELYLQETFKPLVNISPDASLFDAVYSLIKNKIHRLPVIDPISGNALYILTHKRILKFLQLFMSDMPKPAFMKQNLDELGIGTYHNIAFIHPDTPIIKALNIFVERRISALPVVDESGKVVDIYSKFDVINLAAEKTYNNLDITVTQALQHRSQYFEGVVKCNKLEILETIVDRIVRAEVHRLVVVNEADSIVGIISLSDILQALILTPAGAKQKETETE

SMILES | Kd (AMPK-γ2 CBS1-2 (WT)) [µM] | maximal binding (Bmax) (AMPK-γ2 CBS1-2 (WT); [14C]AMP) | increase in Kd relative to wild type (AMPK-γ2 CBS3-4 (R531G)) [fold] | Kd (AMPK-γ2 CBS3-4 (R531G)) [µM] | h (Hill coefficient) (AMPK-γ1 CBS1-4) | Kd (AMPK-γ1 CBS1-4) [µM] | Kd (AMPK-γ2 CBS3-4 (WT)) [µM] | Kd (AMPK-γ2 CBS1-2 (Lins)) [µM] | increase in Kd relative to wild type (AMPK-γ2 CBS1-2 (T400N)) [fold] | Kd (AMPK-γ2 CBS1-2 (T400N)) [µM] | increase in Kd relative to wild type (AMPK-γ2 CBS1-2 (H383R)) [fold] | Kd (AMPK-γ2 CBS1-2 (H383R)) [µM] | h (Hill coefficient) (AMPK-γ3 CBS1-4) | Kd (AMPK-γ3 CBS1-4) [µM] | increase in Kd relative to wild type (AMPK-γ2 CBS1-2 (R302Q)) | Kd (AMPK-γ2 CBS1-2 (R302Q)) [µM] | Kd (AMPK-γ2 CBS1-2 (WT); single-site model, 5 mM MgCl2 included for ATP) [µM]
Nc1ncnc2c1ncn2[C@@H]1O[C@H](COP(=O)(O)O)[C@@H](O)[C@H]1O [AMP, adenosine monophosphate] | 53 ± 5 | 0.95±0.05 moles of AMP per mole of protein | 15 | 1570 ± 110 | 1.6±0.1 and 1.6 ± 0.2 | 20 ± 1 | 104 ± 10 | 63 ± 7 | 10 | 556 ± 56 | 28 | 1500 ± 210 | 2.2 ± 0.1 | 125 | 5.7 fold and 6 fold | 303 ± 42 | –
Nc1ncnc2c1ncn2[C@@H]1O[C@H](COP(=O)(O)OP(=O)(O)OP(=O)(O)O)[C@@H](O)[C@H]1O [ATP] | – | – | – | 2050 ± 150 | 1.9 ± 0.2 | 119 ± 7 | 403 ± 16 | 202 ± 22 | – | 952 ± 55 | – | 1570 ± 140 | 1.5 ± 0.1 | 989 ± 58 | – | 468 ± 86 | 175 ± 17
